Measurements as given in patent US20230014445A1, “ALLOSTERIC CHROMENONE INHIBITORS OF PHOSPHOINOSITIDE 3-KINASE (PI3K) FOR THE TREATMENT OF DISEASE” (Petra Pharma Corporation, priority 2021, published 2023).

Columns and labels:
[1] = molecular target: T1, human full length PIK3KA H1047R mutant (p110α/p85α complex) (Homo sapiens, UniProt P42336, H1047R); test: PI3K-Alpha Kinase (PIK3CA) biochemical activity, H1047R mutant (ADP-Glo); conditions: 20 uM ATP
T1 construct: Recombinant, catalytically active human full length PIK3KA Wild-type and H1047R mutant were purchased; 6xHis (N); purchased EMD Millipore Sigma 14-792M
Excerpt: (§1) PI3K-Alpha Kinase (PIK3CA) Activity, Wild-Type and H1047R Mutant and Determining IC50 Values for Inhibitors
(§2) Recombinant, catalytically active human full length PIK3KA Wild-type and H1047R mutant were purchased as 1:1 complex of N-terminal 6×his tagged p110α (catalytic) and untagged p85α, (regulatory subunit) from EMD Millipore Sigma (cat. no. 14-602M and 14-792M, respectively). PIP2diC8 (Avanti Polar Lipids Inc., cat. no. 850185) or Soy PI (Avanti Polar Lipids Inc., cat. No. 840044P) was used as lipid substrate. PIP2diC8 or PI lyophilized powder was dissolved in milliQ water to a concentration of 1 mM just before use. 10 mM stock compounds in DMSO were serially diluted 1:3 to generate a 10-point curve and plated using an acoustic liquid handler system (Echo 550 series instrument, Labcyte). A 10× intermediate compound plate (200 uM starting compound concentration and 10% DMSO) was prepared before starting the reaction. A typical reaction mixture (50 uL) comprised 40 mM HEPES buffer, pH 7.4, 25 mM MgCl2, 0.01% v/v triton-X-100, 1% v/v DMSO, 20 mM NaCl, 1-5 nM WT or H1047R PI3K protein, 20 uM ATP, and 50 uM PIP2diC8 or Soy PI. 1% DMSO buffer alone without test compound was employed as MAX control (full activity in the absence of any inhibitor), and no enzyme control was used to determine the level of background Adenosine 5′-diphosphate (ADP) (MIN control). First, Wild-type (WT) and H1047R mutant protein in kinase buffer with all components except ATP were incubated with or without compound at 27° C. for 1 h. After the pre-incubation, the reaction was initiated by the addition of […] (20 uM final concentration). The reaction was allowed to proceed until about 10% conversion of ATP (2 uM ADP) at 27° C. After that time, 5 uL of reaction was mixed with 5 uL of ADP-Kinase Glo Reagent (ADP-Glo Kinase assay kit, Promega cat. no. V9102) supplemented with MgCl2 10 mM to stop the reaction and deplete the remaining ATP for 40 min at room temperature. Then, 10 uL of Kinase Detection Reagent (ADP-Glo Kinase assay kit, Promega cat. no. V9102) was added to simultaneously convert ADP to ATP and allow the newly synthesized ATP to be measured using a luciferase/luciferin reaction. After 30 min at room temperature the light generated was measured using a luminometer (EnVision plate reader, Perkin Elmer). Process data through Genedata-Screener tool. Relative IC50 values are determined using luminescence units by calculating percent inhibition with respect to on-plate “MIN” and “MAX” controls. Data was analyzed using a 4-parameter nonlinear logistic equation (four-parameter logistic concentration-response curve):
(§3) Y=bot+[(top−bot)/1+(x/IC50)slope]
(§4) where Y=% inhibition, X=concentration yielding y % inhibition, Bottom=minimum value of y attained by curve, Top=maximum value of y attained by curve and Slope=steepness of curve at IC50.
(§5) % Inh=[(median Max−x/median Max−median Min)]·100
(§6) IC50: concentration of compound that reduces a given response (ligand binding, enzyme response) by 50%. IC50 relative: concentration giving half the compound's maximum response.
(§7) For IC50 values shown in Table A, “A” means IC50<0.5 μM; “B” means IC50 ranging between 0.5 μM and 1.0 μM; “C” means IC50 ranging between 1 μM and 5 μM; “D” means IC50 ranging between 5 μM and 10 μM; “E” means IC50>10 μM.

[2] = molecular target: T2, human full length PIK3KA Wild-type (p110α/p85α complex) (Homo sapiens, UniProt P42336); test: PI3K-Alpha Kinase (PIK3CA) biochemical activity, wild-type (ADP-Glo); conditions: 20 uM ATP
T2 construct: Recombinant, catalytically active human full length PIK3KA Wild-type and H1047R mutant were purchased; 6xHis (N); purchased EMD Millipore Sigma 14-602M
Excerpt: as §1, §2, §3, §4, §5, §6, §7

T1 sequence (P42336 whole entry H1047R): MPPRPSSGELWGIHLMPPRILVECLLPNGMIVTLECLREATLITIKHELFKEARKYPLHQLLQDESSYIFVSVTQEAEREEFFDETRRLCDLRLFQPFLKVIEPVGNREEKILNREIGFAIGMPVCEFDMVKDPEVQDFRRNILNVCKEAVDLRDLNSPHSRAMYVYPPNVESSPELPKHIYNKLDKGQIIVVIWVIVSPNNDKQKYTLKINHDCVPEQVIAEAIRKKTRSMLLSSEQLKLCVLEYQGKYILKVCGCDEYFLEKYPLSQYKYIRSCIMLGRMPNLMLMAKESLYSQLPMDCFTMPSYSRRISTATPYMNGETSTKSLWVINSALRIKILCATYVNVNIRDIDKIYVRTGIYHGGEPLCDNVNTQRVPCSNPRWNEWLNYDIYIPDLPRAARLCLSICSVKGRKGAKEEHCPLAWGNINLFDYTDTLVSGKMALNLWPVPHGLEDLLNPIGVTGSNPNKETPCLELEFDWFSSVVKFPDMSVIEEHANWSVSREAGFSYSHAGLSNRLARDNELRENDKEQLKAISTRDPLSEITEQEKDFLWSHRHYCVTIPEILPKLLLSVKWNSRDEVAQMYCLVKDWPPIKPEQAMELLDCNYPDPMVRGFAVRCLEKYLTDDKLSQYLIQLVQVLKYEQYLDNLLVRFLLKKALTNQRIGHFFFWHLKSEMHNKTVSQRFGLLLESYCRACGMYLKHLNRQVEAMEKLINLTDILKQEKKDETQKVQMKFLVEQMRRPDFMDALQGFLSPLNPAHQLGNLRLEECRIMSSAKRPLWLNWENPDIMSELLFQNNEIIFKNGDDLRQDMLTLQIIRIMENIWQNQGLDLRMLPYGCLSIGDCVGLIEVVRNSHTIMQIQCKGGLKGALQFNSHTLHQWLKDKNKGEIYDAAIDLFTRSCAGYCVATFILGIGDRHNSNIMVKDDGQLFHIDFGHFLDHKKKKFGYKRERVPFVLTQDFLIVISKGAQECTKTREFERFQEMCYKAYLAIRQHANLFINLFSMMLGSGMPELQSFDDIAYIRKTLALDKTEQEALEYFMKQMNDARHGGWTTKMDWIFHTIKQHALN
T1 sequence (P27986 whole entry partner): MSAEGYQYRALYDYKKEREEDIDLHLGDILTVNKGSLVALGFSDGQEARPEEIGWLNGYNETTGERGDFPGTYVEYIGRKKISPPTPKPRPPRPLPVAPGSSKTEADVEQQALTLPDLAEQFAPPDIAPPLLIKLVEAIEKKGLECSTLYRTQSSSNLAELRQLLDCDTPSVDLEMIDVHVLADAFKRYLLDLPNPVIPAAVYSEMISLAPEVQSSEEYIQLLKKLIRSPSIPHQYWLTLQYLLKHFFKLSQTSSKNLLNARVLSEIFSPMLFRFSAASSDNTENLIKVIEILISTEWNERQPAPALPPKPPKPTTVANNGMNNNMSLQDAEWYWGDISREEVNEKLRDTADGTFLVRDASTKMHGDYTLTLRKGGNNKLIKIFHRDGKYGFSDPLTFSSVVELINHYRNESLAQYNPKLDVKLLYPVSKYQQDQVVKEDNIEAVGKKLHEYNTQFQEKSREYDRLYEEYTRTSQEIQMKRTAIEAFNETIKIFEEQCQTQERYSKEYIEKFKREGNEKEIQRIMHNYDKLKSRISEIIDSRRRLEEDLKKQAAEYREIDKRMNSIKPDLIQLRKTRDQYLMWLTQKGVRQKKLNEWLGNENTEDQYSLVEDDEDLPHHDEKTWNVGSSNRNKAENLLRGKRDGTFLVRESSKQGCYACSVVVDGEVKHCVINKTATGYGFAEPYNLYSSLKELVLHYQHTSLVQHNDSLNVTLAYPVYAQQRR

| SMILES | IC50 ([1]; Soy PI lipid substrate) [nM] | IC50 ([2]; Soy PI lipid substrate) [nM] | IC50 ([1]; PIP2diC8 lipid substrate) [nM] | IC50 ([2]; PIP2diC8 lipid substrate) [nM] |
| --- | --- | --- | --- | --- |
| Cc1cc(C(C)Nc2cccc(F)c2C(=O)O)c2oc(-c3ccccn3)cc(=O)c2c1 (stereo not shown) [Example 100, 2-Fluoro-6-[1-[6-methyl-4-oxo-2-(2-pyridyl)chromen-8-yl]ethylamino]benzoic acid 2,2,2-trifluoroacetic acid] | < 500 | > 10000 |  |  |
| Cc1cc(C(C)Nc2ccccc2C(=O)O)c2oc(-c3ccc(OC(C)C)nc3)cc(=O)c2c1 (single isomer, unassigned; isomer 2) [Example 31, 2-[1-[2-(6-Isopropoxy-3-pyridyl)-6-methyl-4-oxo-chromen-8-yl]ethylamino]benzoic acid, Isomer 2] |  |  | < 500 | 1000 to 5000 |
| Cc1cc(C(C)Nc2ccccc2C(=O)O)c2oc(-c3ccc(S(C)(=O)=O)nc3)cc(=O)c2c1 (stereo not shown) [Example 7, 2-[1-[6-Methyl-2-(6-methylsulfonyl-3-pyridyl)-4-oxo-chromen-8-yl]ethylamino]benzoic acid 2,2,2-trifluoroacetic acid] | < 500 | > 10000 |  |  |
| Cc1cc(C(C)Nc2ccccc2C(=O)O)c2oc(-c3cnn(-c4cccc(C#N)c4)c3)cc(=O)c2c1 (single isomer, unassigned) [Example 54, 2-[1-[2-[1-(3-Cyanophenyl)pyrazol-4-yl]-6-methyl-4-oxo-chromen-8-yl]ethylamino]benzoic acid, Isomer 2,2,2,2-trifluoroacetic acid] | < 500 | 1000 to 5000 |  |  |
| Cc1cc(C(C)Nc2ccccc2C(=O)O)c2oc(-c3cnc(C)nc3)cc(=O)c2c1 (stereo not shown) [Example 13, 2-[1-[6-Methyl-2-(2-methylpyrimidin-5-yl)-4-oxo-chromen-8-yl]ethylamino]benzoic acid 2,2,2-trifluoroacetic acid] | 500 to 1000 | > 10000 |  |  |
| Cc1cc(C(C)Nc2ccccc2C(=O)O)c2oc(-c3ccc(C(F)(F)F)nc3)cc(=O)c2c1 (single isomer, unassigned; isomer 2) [Example 38, 2-[1-[6-Methyl-4-oxo-2-[6-(trifluoromethyl)-3-pyridyl]chromen-8-yl]ethylamino]benzoic acid, Isomer 2] | < 500 | > 10000 |  |  |
| COc1cccc(-c2cc(=O)c3cc(C)cc(C(C)Nc4ccccc4C(=O)O)c3o2)n1 (stereo not shown) [Example 11, 2-[1-[2-(6-Methoxy-2-pyridyl)-6-methyl-4-oxo-chromen-8-yl]ethylamino]benzoic acid 2,2,2-trifluoroacetic acid] | < 500 | 500 to 1000 |  |  |
| COc1ccc(-n2cc(-c3oc4c(C(C)Nc5ccccc5C(=O)O)cc(C)cc4c(=O)c3C)cn2)cc1 (single isomer, unassigned) [Example 69, 2-[1-[2-[1-(4-Methoxyphenyl)pyrazol-4-yl]-3,6-dimethyl-4-oxo-chromen-8-yl]ethylamino]benzoic acid, Isomer 1,2,2,2-trifluoroacetic acid] | < 500 | 500 to 1000 |  |  |
| COc1ncc(-c2cc(=O)c3cc(C)cc(C(C)Nc4ccccc4C(=O)O)c3o2)cn1 (stereo not shown) [Example 2, 2-[1-[2-(2-Methoxypyrimidin-5-yl)-6-methyl-4-oxo-chromen-8-yl]ethylamino]benzoic acid 2,2,2-trifluoroacetic acid] | < 500 | 5000 to 10000 |  |  |
| Cc1cc(C(C)Nc2ccccc2C(=O)O)c2oc(-c3cnn(-c4ccc(Cl)cc4)c3)cc(=O)c2c1 (single isomer, unassigned) [Example 106, 2-[1-2-[1-(4-Chiorophenyl)pyrazol-4-yl]-6-methyl-4-oxo-chromen-8-yl]ethylamino]benzoic acid, Isomer 2,2,2,2-trifluoroacetic acid] | < 500 | 1000 to 5000 |  |  |
| Cc1cc(C(C)Nc2ccccc2C(=O)O)c2oc(-c3cc(C#N)ccn3)cc(=O)c2c1 (stereo not shown) [Example 10, 2-[1-[2-(4-Cyano-2-pyridyl)-6-methyl-4-oxo-chromen-8-yl]ethylamino]benzoic acid 2,2,2-trifluoroacetic acid] | 500 to 1000 | 1000 to 5000 |  |  |
| Cc1cc(C(C)Nc2ccc(F)c(F)c2C(=O)O)c2oc(-c3cnn(-c4ccc(C#N)cc4)c3)cc(=O)c2c1 (single isomer, unassigned) [Example 95, 2,3-Difluoro-6-[1-[2-[1-(4-cyanophenyl)pyrazol-4-yl]-6-methyl-4-oxo-chromen-8-yl]ethylamino]benzoic acid, Isomer 1,2,2,2-trifluoroacetic acid] | 1000 to 5000 | > 10000 |  |  |
| Cc1cc(C(C)Nc2ccccc2C(=O)O)c2oc(-c3ccc(F)cn3)cc(=O)c2c1 (stereo not shown) [Example 23, 2-[1-[2-(5-Fluoro-2-pyridyl)-6-methyl-4-oxo-chromen-8-yl]ethylamino]benzoic acid 2,2,2-trifluoroacetic acid] | < 500 | 5000 to 10000 |  |  |
| Cc1cc(C(C)Nc2ccccc2C(=O)O)c2oc(-c3ccccn3)c(C(F)(F)F)c(=O)c2c1 (single isomer, unassigned) [Example 67, 2-[1-[6-Methyl-4-oxo-2-(2-pyridyl)-3-(trifluoromethyl)chromen-8-yl]ethylamino]benzoic acid, Isomer 1,2,2,2-trifluoroacetic acid] | < 500 | 1000 to 5000 |  |  |
| COc1cccc(-n2cc(-c3oc4c(C(C)Nc5ccccc5C(=O)O)cc(C)cc4c(=O)c3C)cn2)c1 (single isomer, unassigned) [Example 66, 2-[1-2-[1-(3-Methoxyphenyl)pyrazol-4-yl]-3,6-dimethyl-4-oxo-chromen-8-yl]ethylamino]benzoic acid, Isomer 1,2,2,2-trifluoroacetic acid] | < 500 | 500 to 1000 |  |  |
| COc1ccc(-c2cc(=O)c3cc(C)cc(C(C)Nc4ccccc4C(=O)O)c3o2)cn1 (stereo not shown) [Example 12, 2-[1-[2-(6-Methoxy-3-pyridyl)-6-methyl-4-oxo-chromen-8-yl]ethylamino]benzoic acid 2,2,2-trifluoroacetic acid] | < 500 | 1000 to 5000 |  |  |
| COc1ccc(-n2cc(-c3cc(=O)c4cc(C)cc(C(C)Nc5ccccc5C(=O)O)c4o3)cn2)cc1F (single isomer, unassigned) [Example 92, 2-[1-[2-[1-(3-Fluoro-4-methoxy-phenyl)pyrazol-4-yl]-6-methyl-4-oxo-chromen-8-yl]ethylamino]benzoic acid, Isomer 2,2,2,2-trifluoroacetic acid] | < 500 | 5000 to 10000 |  |  |
| CC(Nc1ccc(Cl)nc1C(=O)O)c1cc(C(F)(F)F)cc2c(=O)cc(-c3ccccn3)oc12 (single isomer, unassigned; isomer 1) [Example 62, 6-Chloro-3-[1-[4-oxo-2-(2-pyridyl)-6-(trifluoromethyl)chromen-8-yl]ethylamino]pyridine-2-carboxylic acid, Isomer 1] | < 500 | 5000 to 10000 |  |  |
| Cc1cc(C(C)Nc2ccccc2C(=O)O)c2oc(-c3cnn(-c4ccccn4)c3)cc(=O)c2c1 (single isomer, unassigned) [Example 108, 2-[1-[6-Methyl-4-oxo-2-[1-(2-pyridyl)pyrazol-4-yl]chromen-8-yl]ethylamino]benzoic acid, Isomer 2,2,2,2-trifluoroacetic acid] | 500 to 1000 | 1000 to 5000 |  |  |
| Cc1cc(C(C)Nc2ccc(Cl)nc2C(=O)O)c2oc(-c3ccccn3)cc(=O)c2c1 (single isomer, unassigned; isomer 1) [Example 27, 6-Chloro-3-[1-[6-methyl-4-oxo-2-(2-pyridyl)chromen-8-yl]ethylamino]pyridine-2-carboxylic acid, Isomer 1] | < 500 | 1000 to 5000 |  |  |
